According to PubChem BioAssay (NCI):
Values joined by “and” are separate entries in the source; they are usually repeats but may differ in a detail not shown here. Equal entries are not always repeated.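 Cultured in 96-well plates, cells were exposed to test compound for 48 hours across five concentrations. GI50 = concentration required for 50% inhibition of growth. Definition used: TGI = concentration required for complete inhibition of growth.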

Columns and labels:
Experiment in all cases: growth of human tumour cells (NCI), 48 h
M14 melanoma = test system: M14 melanoma
NCI-H522 lung = test system: NCI-H522 lung
SF-539 CNS = test system: SF-539 CNS
SW-620 colon = test system: SW-620 colon
HCC-2998 colon = test system: HCC-2998 colon
CCRF-CEM leukemia = test system: CCRF-CEM leukemia
RPMI-8226 leukemia = test system: RPMI-8226 leukemia
DU-145 prostate = test system: DU-145 prostate
TK-10 renal = test system: TK-10 renal
T-47D breast = test system: T-47D breast

Row | SMILES | GI50 (M14 melanoma) | TGI (M14 melanoma) | GI50 (NCI-H522 lung) | TGI (NCI-H522 lung) | GI50 (SF-539 CNS) | TGI (SF-539 CNS) | GI50 (SW-620 colon) | TGI (SW-620 colon) | GI50 (HCC-2998 colon) | TGI (HCC-2998 colon) | GI50 (CCRF-CEM leukemia) | TGI (CCRF-CEM leukemia) | GI50 (RPMI-8226 leukemia) | TGI (RPMI-8226 leukemia) | GI50 (DU-145 prostate) | TGI (DU-145 prostate) | GI50 (TK-10 renal) | TGI (TK-10 renal) | GI50 (T-47D breast) | TGI (T-47D breast)
1 | COc1cc2nc3cc([N+](=O)[O-])ccc3c(NCCCNCC(C)(C)O)c2cc1OC | 0.352 µM | 1.5 µM | 0.181 µM | 0.425 µM | 0.505 µM | 2.58 µM | 0.301 µM | 1.51 µM | 0.233 µM | 0.62 µM | 0.502 µM | 3.98 µM | 0.565 µM | 4.01 µM | 0.324 µM | 1.11 µM | 0.5 µM | 2.49 µM | 0.237 µM | 0.756 µM
2 | CC1=C[S+](c2ccccc2)c2cccc3cc4ccccc4c1c23 (configuration not stated) | 0.189 µM | – | 0.297 µM | 1.57 µM | 0.35 µM | 1.28 µM | 0.321 µM | 1.65 µM | 0.406 µM | 1.58 µM | 0.265 µM | – | 0.0379 µM | 0.862 µM | 0.515 µM | 2.13 µM | 0.604 µM | 2.38 µM | 0.217 µM | 1.25 µM
3 | COc1ccccc1S(=O)(=O)Nc1ccc2c(c1)CN(C)C(=O)N2 | 3.3 µM and 4.08 µM | > 100 µM | 2.34 µM and 4.75 µM | > 91.7 µM | 4.68 µM and 4.87 µM | 99.2 µM and > 100 µM | 20.3 µM and 14.5 µM | > 100 µM | 6.76 µM and 9.52 µM | > 65.1 µM and 81.5 µM | 5.31 µM and 7.05 µM | > 100 µM | 2.16 µM and 1.89 µM | > 100 µM | 67.4 µM and 33.1 µM | > 100 µM | 2.14 µM and 1.45 µM | > 95.5 µM and 50 µM | 3.27 µM | > 100 µM
4 | O=C(CCCCCCSc1nc(-c2ccc(Cl)cc2)cc(-c2ccc(Cl)cc2)n1)NO | 1.26 µM | 3.87 µM | 0.97 µM | 4.45 µM | 1.53 µM | 5.57 µM | 1.71 µM | 24.2 µM | 4.64 µM | 17 µM | 1.25 µM | > 50 µM | 1.7 µM | > 50 µM | 1.46 µM | 4.9 µM | 1.61 µM | 11.9 µM | 1.39 µM | 9.13 µM
5 | COc1ccc(-c2csc(-c3cc(Cl)cc(Cl)c3Cl)n2)cc1 | > 100 µM | > 100 µM | > 100 µM | > 100 µM | 41.8 µM | > 100 µM | 42.4 µM | > 100 µM | 44.6 µM | > 100 µM | > 100 µM | > 100 µM | 67 µM | > 100 µM | 63.9 µM | > 100 µM | > 100 µM | > 100 µM | 40.3 µM | > 100 µM
6 | C=C(C)[C@@H]1CC[C@]2(COC3CCCCO3)CC[C@]3(C)[C@H](CC[C@@H]4[C@@]5(C)C=C(C=O)C(=O)C(C)(C)[C@@H]5CC[C@]43C)[C@@H]12 (some centres not stated) | 1.34 µM | 3.01 µM | 1.38 µM | 2.86 µM | 1.21 µM | 2.58 µM | 1.13 µM | 2.87 µM | 2.04 µM | 4.2 µM | 0.386 µM | 2.57 µM | 1.59 µM | 8.3 µM | 1.57 µM | 2.92 µM | 1.57 µM | 2.96 µM | 1.33 µM | 3.01 µM
7 | CCOC(=O)c1cc2c(n1Cc1ccccc1)-c1oncc1CC2 | 3.69 µM | 24.6 µM | 1.96 µM | 17.5 µM | 4.04 µM | 25.4 µM | 3.48 µM | > 100 µM | 7.87 µM | 37.1 µM | 4.92 µM | > 100 µM | 4.65 µM | 30.2 µM | 11.4 µM | 44 µM | 14.4 µM | > 100 µM | 4.66 µM | 32 µM
8 | Cc1cc(C)nc(SC2=C(Nc3cccc(Cl)c3C)C(=O)N(Cc3ccccc3)C2=O)n1 | > 160 µM | > 160 µM | > 160 µM | > 160 µM | > 160 µM | > 160 µM | > 160 µM | > 160 µM | > 160 µM | > 160 µM | > 160 µM | > 160 µM | > 160 µM | > 160 µM | > 160 µM | > 160 µM | > 160 µM | > 160 µM | > 160 µM | > 160 µM
9 | COc1cnc2c(c1)C(=O)c1c-2n(CCCN2CCCC2)c(=O)c2cc(F)ccc12 | 0.392 µM | 1.95 µM | 0.0819 µM | 1.23 µM | 0.36 µM | 1.48 µM | 0.199 µM | 2.27 µM | 2.65 µM | 20.7 µM | 0.199 µM | 2.82 µM | 0.123 µM | 0.643 µM | 0.211 µM | 1.34 µM | 0.46 µM | 2.13 µM | 0.218 µM | 10.2 µM
10 | N#Cc1ccc(C(c2ccc(C#N)cc2)n2cncn2)cc1 | > 5000 µM | > 5000 µM | – | > 5000 µM | 1250 µM | > 5000 µM | > 5000 µM | > 5000 µM | > 5000 µM | > 5000 µM | > 5000 µM | > 5000 µM | > 5000 µM | > 5000 µM | > 5000 µM | > 5000 µM | 1310 µM | > 5000 µM | > 5000 µM | > 5000 µM
11 | CCCCCCCCCCCCOC1C(CNC(=O)C2OC3OC(C)(C)OC3C2NC(=O)CN2CCCCCC2)OC2OC(C)(C)OC21 (configuration not stated) | 1.79 µM | 3.47 µM | 5.07 µM | 17.8 µM | 3.54 µM | 8.58 µM | 3.38 µM | 11.1 µM | 6 µM | 19.3 µM | 4.58 µM | 15.9 µM | 3.28 µM | 12.5 µM | 8.23 µM | 20.5 µM | 8.27 µM | 22.5 µM | 7.78 µM | 22.8 µM
12 | O=C(O)c1ccc2c(c1)nc(Nc1cccc(Cl)c1)c1ccncc12 | 1.52 µM and 2.2 µM | 5.39 µM and 9.68 µM | 1.98 µM and 1.39 µM | 6.42 µM and 4.51 µM | 2.05 µM and 1.58 µM | 8.45 µM and 6.12 µM | 3.1 µM and 3.97 µM | 26.5 µM and > 10 µM | 2.53 µM and 4.02 µM | 15.1 µM and > 10 µM | 2.25 µM and 1.85 µM | 8.55 µM and 7.01 µM | 2.68 µM and 2.5 µM | 8.86 µM and 9.44 µM | 4.92 µM and 6.02 µM | 47.3 µM and > 10 µM | 3.67 µM and 2.13 µM | 25.2 µM and > 10 µM | 2.83 µM and 1.33 µM | > 39.1 µM and 5.71 µM
